Entries after “also recorded” stand apart in the source; their conditions may differ.

The results in this text go back to patent US9561234B2, “Methods for treating diseases of the retina” (Allergan, Inc., priority 2010, dated 2017).

One data set concerns ARPE-19 cells. Put plainly: Cell viability assay: protection of RPE cells from tBH oxidative stress. Type of data set: cell-based. As to conditions: for PROTECTION (%) AT 10 uM: protection of RPEs from oxidative stress (0.3 mM tBH), ARPE-19 cells. Here is the method: (§1) ARPE-19 cells from ATCC were grown in DEME/F12 medium supplemented with 10% Fetal Bovine Serum (FBS) and split into 96-well plates at a density of 10,000 cells per well. Cells were incubated overnight in 0.1% FBS medium before addition of compound/drug. Stocks of compounds of interest were made at different concentrations and added to ARPE-19 cells in 0.1% FBS medium for one hour.
After one hour of compound/drug pretreatment, cells were incubated with 0.3 mM tert-butyl hydroperoxide (tBH) for 3 hours followed by three times of washing and replacement with fresh drug and medium (0.1% FBS medium) for overnight. […] Error bars, SEM. n=3.

The test system of data set [1] is IL-8 secretion from RPE cells (ARPE-19). Put plainly: IL-8 assay: Poly I:C induced IL-8 secretion from RPE cells. Type of data set: cell-based. The note with it: 1 ug/ml poly I:C, 24 hours; FIG. 1B. Here is the method:
as §1
After one hour of drug pretreatment, cells were incubated with 1 ug/ml polyl:C for 24 hours. The cell culture supernatant was used to measure IL-8 production with IL-8 ELISA Kit (R&D Systems, D8000C). Error bars, SEM. n=3.

Data set [2] has as its system blue light exposed rats. Put plainly: Blue light study: retinal thickness by optical coherence tomography. Type of data set: in vivo, Sprague-Dawley (SD) rats. As to conditions: IP once per day for 3 days; OCT 7-10 days post blue light; FIG. 3. Here is the method:
Drug treatment was started 2 days before blue light exposure. Animals received olanzapine IP injection once per day for 3 days and the last dosing was 1 hour before blue light exposure. Rats were dark adapted for 24 hours before they were exposed to blue light with lux intensity of ˜6-7 k for 4 hours. Right after the blue light exposure, the rats were dark adapted again for another 3 days before returning to normal room light (12-hour light/12-hour dark). Optical coherence tomography (OCT) was used to evaluate the retinal thickness change caused by blue light at 7-10 days post blue light exposure. Error bars, SEM. OS=Left Eye, OD=Right Eye.
(§2) Four to five month old Sprague-Dawley (SD) male rats were used in the following study. Drug treatment was started 2 days before blue light exposure. Animals received olanzapine IP injection once per day for 3 days and the last dosing was 1 hour before blue light exposure.
For intravitreal injection (IVT), animals received olanzapine (having the structure shown below) 1 hour before blue light exposure. For topical administration, the drug was given 24 hours (BID) and one hour (QI) before blue light exposure. Water was used for parallel control vehicle IP/IVT injection or topical administration. Rats were dark adapted for 24 hours before they were exposed to blue light with lux intensity of ˜6-7 k for 4 hours. […]

For data set [3], the system named is blue light exposed rats. As to the kind of experiment: Electroretinography (ERG) assay after blue light exposure. Type of data set: in vivo, Sprague-Dawley (SD) rats. Here is the method: as §2
(§3) For intravitreal injection (IVT), animals received olanzapine (having the structure shown below) 1 hour before blue light exposure. For topical administration, the drug was given 24 hours (BID) and one hour (QI) before blue light exposure. Water was used for parallel control vehicle IP/IVT injection or topical administration. Rats were dark adapted for 24 hours before they were exposed to blue light with lux intensity of ˜6-7 k for 4 hours. Right after the blue light exposure, the rats were dark adapted again for another 3 days before returning to normal room light (12-hour light/12-hour dark). Optical coherence tomography (OCT) was used to evaluate the retinal thickness change caused by blue light at 7-10 days post blue light exposure. Error bars, SEM. (FIG. 3).
Bilateral Flash Electroretinograms were recorded in SD rats using the Espion E^2 electroretinography system. On the day of ERG, Animals were dark adapted for at least 30 minutes. Their eyes were dilated with Tropicamide HCl (1%) and Ak-dilate (10%). Prior to ERG recording, the animal was anesthetized with intramuscular injection of 40 mg/ml Ketamine HCl and 12 mg/ml Xylazine HCl, and placed onto heated platform. The ground needle was placed in the skin under the arm and the reference needle was place in the skin above the head. Retinae were stimulated using 1 cd.s/m2 flash for an average of 10 traces at 0.1 Hz. Recording filter was set at 300 Hz. ERG responses were analyzed using Espion E^2, and Microsoft excel program. The b-wave amplitude was measured from the trough of the a-wave to the peak of the b-wave, and the a-wave was measured as the difference in amplitude between recording at onset and the trough of the negative deflection. Error bars, SEM. (FIGS. 4, 8, and 9).

The test system of data set [4] is blue light exposed rats. As to the kind of experiment: H&E staining and immuno-histochemistry of rat ocular tissue after blue light exposure. Type of data set: in vivo, Sprague-Dawley rats. The note with it: IP, 2-3 wks after blue light exposure. Here is the method:
as §2, §3
Sprague-Dawley male rats 2-3 weeks after blue light exposure were euthanized with CO2 and orbits enucleated. Eyes were fixed in Davidson's fixative overnight at room temperature and transferred to 70% ethanol for 24 hrs. Further tissue processing was done by serial dehydration in 80%, 95% & 100% alcohol and Propar, followed by paraffin embedding. Whole rat eyes were transversely cut in the vertical meridian proceeding from nasal to temporal side, using a Microtome (RM2255; Leica Microsystems). Using optic nerve head as the landmark, a total of 45 serial sections with 5 microns/section were collected on 15 glass slides. Slide #s 1, 5, 10 & 15 were deparaffinized and sequentially stained using hematoxylin (nucleus) and eosin (cytoplasm) as per standard protocol to compare photoreceptor/RPE lesion between experimental groups. The rest of the slides were used to determine expressions of Rhodopsin, RPE65 and GFAP using the specific antibodies by standard immune-histochemistry techniques.

For data set [5], the system named is C57B6 mice with oxygen-induced retinopathy. As to the kind of experiment: Oxygen-induced retinopathy (hyperoxia): retinal neovascularization. Type of data set: in vivo. As to conditions: gavage once daily P10 through P16; evaluated on P17; FIG. 10. The procedure: Litters of newborn mice and their dams were placed in a 75% oxygen chamber from P7 to P12. The chamber contained enough food and water for 5 days and was opened only to allow drug administration to the animals. The mice were returned to room air with normal oxygen content on P12. Olanzapine in water or VEH (water) was administered once daily by gavage beginning on P10 and continuing through P16. Retinal neovascularization was evaluated on P17 after 5 days of exposure of the animals to room air. Error bars, SEM.
Oxygen-induced retinopathy (OIR)/Hyperoxia was induced in C57B6 mice using the protocol reported by Smith et al. (Smith L E, Wesolowski E, McLellan A, et al. Oxygen-induced retinopathy in the mouse. Invest Ophthalmol Vis Sci. 1994; 35(1):101-111). […] Retinal neovascularization was evaluated on P17 after 5 days of exposure of the animals to room air.
Retinal neovascularization was evaluated by angiography in mice subjected to OIR as described previously (Smith L E, Wesolowski E, McLellan A, et al. Oxygen-induced retinopathy in the mouse. Invest Ophthalmol Vis Sci. 1994; 35(1):101-111). […] Quantification of retinal neovascularization was performed as described previously (Chen J, Connor K M, Aderman C M, Smith L E. Erythropoietin deficiency decreases vascular stability in mice. J Clin Invest. 2008; 118(2):526-533). […]

For data set [6], the system named is laser induced choroidal neovascularization in rats. As to the kind of experiment: Choroidal neovascularization (CNV) assay, laser induced. Type of data set: in vivo, Brown Norway rats. The note with it: i.p. 1 mg/kg once a day for 3 days plus intravitreal day 1, 4 & 6; 11 days after laser; FIG. 11. Here is the method: Brown Norway rats (Charles Rivers), weighing 250-300 grams each were used in the study. Drug treatment was started 2 days prior to Laser treatment. Olanzapine was given i.p. (1 mg/kg) once a day for 3 days (day −2, −1 & 0). The last dose on day 0 was delivered about 1 hr before laser treatment. Phosphate buffered saline (PBS) was used for parallel control vehicle IP injection. On day zero of the laser procedure, rat eyes (pupil) were dilated with Tropicamide HCl HCl (1%) and Ak-dilate (10%). Rats were then anesthetized with intramuscular injection of 40 mg/ml Ketamine HCL and 12 mg/ml Xylazine HCl. The fundo's was visualized using a microscope slide coverslip with Refresh Liquigel eye drops as an optical coupling agent. For each animal, 6 laser spots in each eye (360 mW power, 0.07 sec. duration, 50 μm spot size) were made with argon laser (Coherent Inc.; Santa Clara, Ca.) concentrically at approximately equal distances around the optic disc, between every 2 retinal vessels. A single 5-ul volume of the drug (olanzapine) or PBS was injected into the vitreous cavity at day 1, 4 & 6 post-laser photocoagulation procedure. At 11 days after laser treatment, animals were sacrificed by CO2 exposure and CNV formation was assayed as described previously. […] The area of fluorescence was quantified using Metamorph image analysis software (RPI, Natick, Mass.).

Consider `Cc1cc2c(s1)Nc1ccccc1N=C2N1CC[N+](C)([O-])CC1` [Metabolite A, Olanzapine-N-oxide], for which the “PROTECTION (%) AT 10 uM” value with ARPE-19 cells is 103%.

Regarding `Clc1ccc2c(c1)N=C(N1CCNCC1)c1ccccc1N2` [n-desmethly clozapine, N-desmethyl clozapine], in the data set on ARPE-19 cells, the “PROTECTION (%) AT 10 uM” value is given as 77%.

In the case of `Cc1cc2c(s1)Nc1ccccc1N=C2N1CCN(C)CC1` [Olanzapine, 2-methyl-4-(4-methylpiperazin-1-yl)-10H-benzo[b]thieno[2,3-e][1,4]diazepine], the “PROTECTION (%) AT 10 uM” value with ARPE-19 cells came to 116%. The “protection of RPE cells from oxidative stress (tBH) induced apoptosis / cell death” value in the data set with ARPE-19 cells (tBH, RPE cells, FIGS. 1A, 2) is “significantly protects in a dose responsive fashion; also recorded: protect”. The “inhibition of Poly I:C induced IL-8 secretion from RPE cells” value in data set [1] was “inhibits”. Moreover, the “protection of superior retinal thickness (OCT)” value in the data set with blue light exposed rats [2] is listed as “significantly protects”. Further, in the data set with blue light exposed rats [3] (IP once per day for 3 days, ERG 7-10 days post blue light, FIG. 4), the “protection of retinal a- and b-waves (ERG)” value is “significantly protects”. Also, the “prevention of ERG alteration” value in the data set on blue light exposed rats [3] (intravitreal, 0.04, 0.2, or 1 ug/eye, 1 hour before blue light, ERG 7-10 days post, FIG. 8) was “significantly prevents”. The “protection of retinal a- and b-wave signals (ERG)” value with blue light exposed rats [3] (topical ocular dosing 24 hours (BID) and one hour before blue light, ERG 7-10 days post, FIG. 9) is “significantly protects”. The “protection of outer nuclear layer (H&E staining)” value in the data set with blue light exposed rats [4] (FIG. 5) was “significantly protects”. The “protection from retinal rhodopsin loss (immuno-histochemistry)” value in the data set on blue light exposed rats [4] (FIG. 6) is “significantly protects”. Moreover, in the data set on blue light exposed rats [4] (FIG. 7), the “inhibition of GFAP upregulation (immuno-histochemistry)” value was “partially inhibits” and the “protection from RPE65 loss (immuno-histochemistry)” value was “significantly protects”. Also, the “attenuation of hyperoxia induced retinal neovascularization” value in data set [5] is reported as “significantly attenuates”. Further, the “inhibition of laser induced choroidal neovascularization” value in data set [6] is given as “significantly inhibits”.

With `Cc1cc2c(s1)Nc1ccccc1N=C2N1CCNCC1` [Metabolite B, N-desmethyl olanzapine], the “PROTECTION (%) AT 10 uM” value in the data set on ARPE-19 cells was 129%.
